This passage reports Activity results from ChEMBL document CHEMBL4765228, “Indole-like Trk receptor antagonists” (Eur J Med Chem, 2016).

For assay [1], the target named is Receptor tyrosine-protein kinase erbB-4 (Homo sapiens) (UniProt Q15303). Description: Inhibition of human ERBB4 assessed as residual activity at 1 uM relative to control.
Assay [2] concerns the target Ribosomal protein S6 kinase alpha-5 (Homo sapiens) (UniProt O75582). Briefly: Inhibition of human RPS6KA5 assessed as residual activity at 0.1 uM relative to control.
The target of assay [3] is Serine/threonine-protein kinase Chk2 (Homo sapiens) (UniProt O96017). Briefly: Inhibition of human CHK2 assessed as residual activity at 0.1 uM relative to control.
Assay [4] has as its target Rho-associated protein kinase 2 (Homo sapiens) (UniProt O75116). Description: Inhibition of human ROCK2 assessed as residual activity at 0.1 uM relative to control.
Assay [5] concerns the target Casein kinase I isoform delta (Homo sapiens) (UniProt P48730). Briefly: Inhibition of human CK1-delta assessed as residual activity at 1 uM relative to control.
The target in assay [6] is Tyrosine-protein kinase BTK (Homo sapiens) (UniProt Q06187). Description: Inhibition of human BTK assessed as residual activity at 1 uM relative to control.
Assay [7] deals with T1, Mitogen-activated protein kinase kinase kinase 7 (Homo sapiens) (UniProt O43318).
T1 sequence (whole entry): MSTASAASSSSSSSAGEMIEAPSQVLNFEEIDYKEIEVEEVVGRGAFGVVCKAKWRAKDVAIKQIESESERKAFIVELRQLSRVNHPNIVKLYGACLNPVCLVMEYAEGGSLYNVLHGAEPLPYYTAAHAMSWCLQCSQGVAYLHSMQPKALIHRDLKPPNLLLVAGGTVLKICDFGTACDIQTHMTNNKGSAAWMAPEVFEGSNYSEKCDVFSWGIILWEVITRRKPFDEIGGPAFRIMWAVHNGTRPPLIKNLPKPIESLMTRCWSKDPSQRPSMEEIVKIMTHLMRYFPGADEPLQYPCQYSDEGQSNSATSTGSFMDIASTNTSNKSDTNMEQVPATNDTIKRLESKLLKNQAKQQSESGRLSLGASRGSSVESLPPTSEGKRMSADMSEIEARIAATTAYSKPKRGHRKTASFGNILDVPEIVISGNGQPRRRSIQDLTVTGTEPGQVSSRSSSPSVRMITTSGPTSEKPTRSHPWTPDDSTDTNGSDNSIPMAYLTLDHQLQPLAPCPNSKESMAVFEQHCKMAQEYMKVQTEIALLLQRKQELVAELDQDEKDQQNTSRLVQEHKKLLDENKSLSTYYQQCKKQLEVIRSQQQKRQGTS
Briefly: Inhibition of human MAP3K7 assessed as residual activity at 1 uM relative to control.

In assay [8] the target is Protein kinase C alpha type (Homo sapiens) (UniProt P17252). Briefly: Inhibition of human PKCalpha assessed as residual activity at 0.1 uM relative to control.
The target in assay [9] is Mitogen-activated protein kinase 8 (Homo sapiens) (UniProt P45983). Description: Inhibition of human JNK1 assessed as residual activity at 0.1 uM relative to control.
The target of assay [10] is Mitogen-activated protein kinase 14 (Homo sapiens) (UniProt Q16539). Description: Inhibition of human p38-alpha assessed as residual activity at 1 uM relative to control.
The target of assay [11] is Calcium/calmodulin-dependent protein kinase type 1D (Homo sapiens) (UniProt Q8IU85). Briefly: Inhibition of human CAMK1D assessed as residual activity at 0.1 uM relative to control.
Assay [12] addresses Serine/threonine-protein kinase PLK1 (Homo sapiens) (UniProt P53350). Description: Inhibition of human PLK1 assessed as residual activity at 0.1 uM relative to control.
The target of assay [13] is T2, Eukaryotic elongation factor 2 kinase (Homo sapiens) (UniProt O00418).
T2 sequence (whole entry): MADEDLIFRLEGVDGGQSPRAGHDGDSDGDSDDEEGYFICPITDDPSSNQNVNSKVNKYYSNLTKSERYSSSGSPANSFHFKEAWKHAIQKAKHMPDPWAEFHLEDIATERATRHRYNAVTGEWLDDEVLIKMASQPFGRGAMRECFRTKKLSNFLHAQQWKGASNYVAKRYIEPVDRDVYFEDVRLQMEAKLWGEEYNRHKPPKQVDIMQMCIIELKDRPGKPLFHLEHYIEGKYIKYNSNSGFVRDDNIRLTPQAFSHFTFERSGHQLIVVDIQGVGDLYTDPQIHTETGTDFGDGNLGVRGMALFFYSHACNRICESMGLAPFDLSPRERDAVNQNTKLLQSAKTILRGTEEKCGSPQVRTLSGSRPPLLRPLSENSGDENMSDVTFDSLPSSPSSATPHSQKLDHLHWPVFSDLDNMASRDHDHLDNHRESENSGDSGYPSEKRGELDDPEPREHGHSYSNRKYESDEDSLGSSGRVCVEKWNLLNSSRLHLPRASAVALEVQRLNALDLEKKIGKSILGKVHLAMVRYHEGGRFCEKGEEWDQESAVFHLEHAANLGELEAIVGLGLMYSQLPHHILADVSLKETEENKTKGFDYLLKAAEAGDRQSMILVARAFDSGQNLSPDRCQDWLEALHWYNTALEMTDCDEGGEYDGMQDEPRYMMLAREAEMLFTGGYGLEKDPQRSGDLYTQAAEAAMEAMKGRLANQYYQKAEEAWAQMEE
Description: Inhibition of human EEF2K assessed as residual activity at 1 uM relative to control.

The target of assay [14] is Homeodomain-interacting protein kinase 2 (Homo sapiens) (UniProt Q9H2X6). Briefly: Inhibition of human HIPK2 assessed as residual activity at 1 uM relative to control.
Sequence of Homeodomain-interacting protein kinase 2 (Homo sapiens) (Q9H2X6 whole entry, looked up): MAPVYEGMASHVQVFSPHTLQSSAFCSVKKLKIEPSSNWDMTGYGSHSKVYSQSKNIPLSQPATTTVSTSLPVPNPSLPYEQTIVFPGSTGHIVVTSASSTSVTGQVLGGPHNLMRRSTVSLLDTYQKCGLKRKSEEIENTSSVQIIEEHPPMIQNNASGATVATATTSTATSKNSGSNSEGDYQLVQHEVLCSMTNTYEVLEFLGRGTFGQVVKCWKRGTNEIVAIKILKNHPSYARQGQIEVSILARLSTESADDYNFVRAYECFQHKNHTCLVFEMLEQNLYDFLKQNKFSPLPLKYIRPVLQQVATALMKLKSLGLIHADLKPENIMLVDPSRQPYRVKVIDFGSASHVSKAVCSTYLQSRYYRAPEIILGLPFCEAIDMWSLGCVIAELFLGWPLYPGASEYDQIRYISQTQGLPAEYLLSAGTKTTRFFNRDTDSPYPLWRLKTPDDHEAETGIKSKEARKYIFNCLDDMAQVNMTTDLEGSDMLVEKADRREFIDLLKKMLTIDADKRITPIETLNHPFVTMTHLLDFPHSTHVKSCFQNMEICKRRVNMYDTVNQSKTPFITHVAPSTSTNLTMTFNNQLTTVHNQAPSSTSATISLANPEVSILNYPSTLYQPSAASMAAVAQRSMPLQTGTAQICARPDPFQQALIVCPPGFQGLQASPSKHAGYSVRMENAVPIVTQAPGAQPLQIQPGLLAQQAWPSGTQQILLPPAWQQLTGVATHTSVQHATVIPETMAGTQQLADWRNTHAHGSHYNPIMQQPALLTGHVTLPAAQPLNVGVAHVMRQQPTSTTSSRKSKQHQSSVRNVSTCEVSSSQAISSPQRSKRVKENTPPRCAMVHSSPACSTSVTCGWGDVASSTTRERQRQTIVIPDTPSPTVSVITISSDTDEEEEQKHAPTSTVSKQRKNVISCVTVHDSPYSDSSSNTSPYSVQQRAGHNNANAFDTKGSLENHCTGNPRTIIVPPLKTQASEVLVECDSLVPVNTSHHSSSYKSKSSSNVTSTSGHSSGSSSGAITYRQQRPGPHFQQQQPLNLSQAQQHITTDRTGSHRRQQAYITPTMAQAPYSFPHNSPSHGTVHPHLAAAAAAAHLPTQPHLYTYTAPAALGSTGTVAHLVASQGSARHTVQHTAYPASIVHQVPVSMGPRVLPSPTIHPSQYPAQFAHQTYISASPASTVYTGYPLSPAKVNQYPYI

Sequence of Casein kinase I isoform delta (Homo sapiens) (P48730 whole entry, looked up, canonical isoform): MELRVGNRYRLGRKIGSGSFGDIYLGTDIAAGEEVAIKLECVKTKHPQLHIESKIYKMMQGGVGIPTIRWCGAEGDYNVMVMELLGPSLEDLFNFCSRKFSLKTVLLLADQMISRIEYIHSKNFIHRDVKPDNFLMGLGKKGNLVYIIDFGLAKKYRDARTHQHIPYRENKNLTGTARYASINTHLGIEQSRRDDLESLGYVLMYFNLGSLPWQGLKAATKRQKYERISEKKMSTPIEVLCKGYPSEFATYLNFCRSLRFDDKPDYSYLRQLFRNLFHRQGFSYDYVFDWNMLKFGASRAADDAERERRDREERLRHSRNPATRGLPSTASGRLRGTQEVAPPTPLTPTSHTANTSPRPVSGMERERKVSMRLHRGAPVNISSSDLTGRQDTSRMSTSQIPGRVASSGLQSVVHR
Sequence of Tyrosine-protein kinase BTK (Homo sapiens) (Q06187 whole entry): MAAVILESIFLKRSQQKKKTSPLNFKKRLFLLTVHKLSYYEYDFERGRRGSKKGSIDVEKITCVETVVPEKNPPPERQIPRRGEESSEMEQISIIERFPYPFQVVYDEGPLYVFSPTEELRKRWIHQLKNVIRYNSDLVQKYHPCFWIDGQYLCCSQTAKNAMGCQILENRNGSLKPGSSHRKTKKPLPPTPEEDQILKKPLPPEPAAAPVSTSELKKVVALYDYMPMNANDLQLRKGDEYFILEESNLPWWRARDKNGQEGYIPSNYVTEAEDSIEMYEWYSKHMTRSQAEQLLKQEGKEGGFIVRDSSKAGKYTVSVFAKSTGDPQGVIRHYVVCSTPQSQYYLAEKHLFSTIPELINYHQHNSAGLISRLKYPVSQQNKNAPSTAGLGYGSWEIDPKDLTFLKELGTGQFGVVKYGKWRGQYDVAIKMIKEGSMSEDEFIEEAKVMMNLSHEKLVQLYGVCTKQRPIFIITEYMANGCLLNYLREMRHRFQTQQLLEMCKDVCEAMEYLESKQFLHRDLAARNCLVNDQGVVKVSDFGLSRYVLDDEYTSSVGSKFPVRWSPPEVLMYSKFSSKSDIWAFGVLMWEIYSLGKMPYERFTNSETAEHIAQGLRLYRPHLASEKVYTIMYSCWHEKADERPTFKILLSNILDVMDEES
Sequence of Mitogen-activated protein kinase 14 (Homo sapiens) (Q16539 whole entry): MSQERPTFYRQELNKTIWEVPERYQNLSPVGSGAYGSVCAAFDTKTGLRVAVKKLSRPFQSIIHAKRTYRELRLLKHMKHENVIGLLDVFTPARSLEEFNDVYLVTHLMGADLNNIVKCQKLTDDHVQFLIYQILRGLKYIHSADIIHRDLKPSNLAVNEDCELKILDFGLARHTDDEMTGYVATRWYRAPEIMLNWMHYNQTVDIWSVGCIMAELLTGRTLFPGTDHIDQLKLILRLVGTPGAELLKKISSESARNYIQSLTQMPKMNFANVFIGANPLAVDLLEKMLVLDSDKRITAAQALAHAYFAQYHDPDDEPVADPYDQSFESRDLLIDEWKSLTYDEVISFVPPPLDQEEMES
Sequence of Rho-associated protein kinase 2 (Homo sapiens) (O75116 whole entry, looked up, canonical isoform): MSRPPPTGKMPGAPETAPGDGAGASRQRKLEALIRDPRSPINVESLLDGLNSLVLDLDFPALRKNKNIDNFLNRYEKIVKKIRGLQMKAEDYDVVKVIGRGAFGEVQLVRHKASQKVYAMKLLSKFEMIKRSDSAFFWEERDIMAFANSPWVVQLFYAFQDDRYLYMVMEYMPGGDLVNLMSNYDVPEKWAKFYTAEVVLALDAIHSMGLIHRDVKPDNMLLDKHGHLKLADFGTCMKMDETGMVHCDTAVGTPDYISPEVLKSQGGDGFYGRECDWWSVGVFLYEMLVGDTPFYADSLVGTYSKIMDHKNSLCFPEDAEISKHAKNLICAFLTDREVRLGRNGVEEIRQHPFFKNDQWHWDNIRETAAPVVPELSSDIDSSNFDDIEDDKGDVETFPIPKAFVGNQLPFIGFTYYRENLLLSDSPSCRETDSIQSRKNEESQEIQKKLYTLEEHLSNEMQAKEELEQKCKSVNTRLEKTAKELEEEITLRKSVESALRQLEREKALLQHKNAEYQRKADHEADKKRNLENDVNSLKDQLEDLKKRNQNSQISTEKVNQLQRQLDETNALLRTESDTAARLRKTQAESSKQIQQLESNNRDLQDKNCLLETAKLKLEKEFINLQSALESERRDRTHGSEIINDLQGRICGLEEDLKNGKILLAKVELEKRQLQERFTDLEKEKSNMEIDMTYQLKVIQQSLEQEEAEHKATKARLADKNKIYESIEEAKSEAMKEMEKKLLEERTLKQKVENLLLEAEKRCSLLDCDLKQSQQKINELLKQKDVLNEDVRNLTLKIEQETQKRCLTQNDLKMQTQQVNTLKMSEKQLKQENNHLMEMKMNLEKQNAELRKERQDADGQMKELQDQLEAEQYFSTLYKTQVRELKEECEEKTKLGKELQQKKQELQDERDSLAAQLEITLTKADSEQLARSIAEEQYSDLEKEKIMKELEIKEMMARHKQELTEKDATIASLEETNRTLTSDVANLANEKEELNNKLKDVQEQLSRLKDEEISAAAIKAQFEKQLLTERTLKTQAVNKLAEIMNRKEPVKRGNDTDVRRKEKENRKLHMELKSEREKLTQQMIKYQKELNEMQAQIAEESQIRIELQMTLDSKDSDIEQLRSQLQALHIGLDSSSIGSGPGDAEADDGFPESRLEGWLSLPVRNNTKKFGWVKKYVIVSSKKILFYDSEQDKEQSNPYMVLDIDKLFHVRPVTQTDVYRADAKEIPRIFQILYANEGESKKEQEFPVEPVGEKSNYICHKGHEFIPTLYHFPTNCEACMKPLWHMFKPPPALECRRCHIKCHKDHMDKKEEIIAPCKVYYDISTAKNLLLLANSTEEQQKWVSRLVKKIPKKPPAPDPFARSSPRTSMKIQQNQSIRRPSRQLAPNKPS
Sequence of Serine/threonine-protein kinase PLK1 (Homo sapiens) (P53350 whole entry): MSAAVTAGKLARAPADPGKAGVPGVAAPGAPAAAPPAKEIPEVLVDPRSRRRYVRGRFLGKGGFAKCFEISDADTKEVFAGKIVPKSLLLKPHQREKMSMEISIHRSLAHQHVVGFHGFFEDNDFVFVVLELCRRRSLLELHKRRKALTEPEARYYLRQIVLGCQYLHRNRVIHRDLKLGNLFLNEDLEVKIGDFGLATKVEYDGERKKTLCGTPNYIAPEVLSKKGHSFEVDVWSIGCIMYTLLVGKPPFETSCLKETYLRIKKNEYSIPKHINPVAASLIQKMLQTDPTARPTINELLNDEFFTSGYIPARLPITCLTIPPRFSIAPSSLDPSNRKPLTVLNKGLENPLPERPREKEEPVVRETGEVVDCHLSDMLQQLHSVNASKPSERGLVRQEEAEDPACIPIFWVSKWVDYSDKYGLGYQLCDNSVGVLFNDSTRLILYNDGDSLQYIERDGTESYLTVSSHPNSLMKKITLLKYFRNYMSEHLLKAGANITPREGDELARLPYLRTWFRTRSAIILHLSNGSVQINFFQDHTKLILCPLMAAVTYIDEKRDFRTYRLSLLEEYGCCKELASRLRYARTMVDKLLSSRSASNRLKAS
Sequence of Calcium/calmodulin-dependent protein kinase type 1D (Homo sapiens) (Q8IU85 whole entry, looked up): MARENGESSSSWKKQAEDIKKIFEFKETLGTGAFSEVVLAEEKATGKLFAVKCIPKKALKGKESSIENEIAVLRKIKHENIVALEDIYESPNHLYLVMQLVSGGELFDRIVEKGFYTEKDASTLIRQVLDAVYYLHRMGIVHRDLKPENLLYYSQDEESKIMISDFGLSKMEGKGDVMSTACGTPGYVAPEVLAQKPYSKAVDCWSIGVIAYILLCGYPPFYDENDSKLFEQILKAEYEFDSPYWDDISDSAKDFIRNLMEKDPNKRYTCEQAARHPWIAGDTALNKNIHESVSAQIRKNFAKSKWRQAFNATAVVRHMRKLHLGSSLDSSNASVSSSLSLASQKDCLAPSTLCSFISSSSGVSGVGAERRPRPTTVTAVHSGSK

As to `CNS(=O)(=O)c1ccc2c(c1)/C(=C/c1cn(C)c3ccc(OC)cc13)C(=O)N2`, the Activity came to 42% in assay [1]; 96% in [2]; 93% in assay [3]; 94% in assay [4]; 91% in assay [5]; 73% in [6]. The Activity in assay [7] was 95%; in [8], 101%; in assay [9] it was 103%; in [10] it was 99%; in [11], 90%; in assay [12], 92%. Also, the Activity in [13] was determined as 92%; in assay [14], 102%.

For `CN(C)S(=O)(=O)c1ccc2c(c1)/C(=C/c1cn(C)c3ccc(O)cc13)C(=O)N2`, the Activity is 95% in assay [1]; 106% in [2]; 94% in [3]; 79% in [4]; 87% in assay [5]; 107% in [6]. The Activity in assay [7] was found to be 92%; in assay [8], 96%; in assay [9], 105%; in [10] it was 96%; in [11], 100%; in [12], 93%. Besides, the results for the Activity in [13] and in [14] were 106% and 96%, respectively.

Turning to `COc1ccc2[nH]cc(/C=C3\C(=O)Nc4ccc(S(N)(=O)=O)cc43)c2c1`, the Activity in assay [1] came to 60%; in assay [2], 93%; in assay [3], 59%; in assay [4], 101%; in assay [5] it was 79%; in [6], 91%. The Activity in assay [7] turned out to be 64%; in assay [8], 104%; in [9], 103%; in assay [10] it was 93%; in [11] it was 97%; in [12], 93%. The Activity in assay [13] is 112%; in [14], 84%.

With `COc1ccc2c(c1)c(/C=C1\C(=O)Nc3ccc(S(=O)(=O)N(C)C)cc31)cn2C`, the Activity stood at 85% in assay [1]; 105% in assay [2]; 100% in [3]; 92% in assay [4]; 86% in [5]; 89% in [6]. For the same compound, the Activity stood at 88% in [7]; 93% in assay [8]; 103% in [9]; 97% in [10]; 99% in [11]; 83% in [12]. Besides, the Activity worked out at 86% in assay [13] and 85% in [14].

Consider `COc1ccc2c(c1)c(/C=C1\C(=O)Nc3ccc(S(N)(=O)=O)cc31)cn2C`, for which the Activity is 87% in assay [1]; 103% in [2]; 35% in assay [3]; 99% in [4]; 84% in [5]; 107% in assay [6]. The Activity in assay [7] is 89%; in assay [8], 91%; in assay [9] it was 110%; in assay [10], 100%; in assay [11], 84%; in [12], 93%. The Activity in assay [13] worked out at 102%; in [14], 81%.

On to `Cn1cc(/C=C2\C(=O)Nc3ccc(S(N)(=O)=O)cc32)c2ccccc21`, for which the Activity stood at 101% in assay [1]; 99% in [2]; 9% in assay [3]; 76% in [4]; 82% in [5]; 119% in assay [6]. The Activity was 63% in assay [7]; 106% in assay [8]; 121% in assay [9]; 104% in assay [10]; 106% in [11]; 102% in [12]. For the same compound, the Activity in [13] and in assay [14] was 103% each time.
